What was measured:
A549 = test: Cytotoxicity against human A549 cells after 72 hrs by MTT assay; conditions: A549, 72 h
cells = conditions: Homo sapiens, PC-3, 72 h
Description: Cytotoxicity against human PC3 cells after 72 hrs by MTT assay

MCF7 = test: cells; conditions: Homo sapiens, MCF7, 72 h
Description: Cytotoxicity against human MCF7 cells after 72 hrs by MTT assay

[1] = target: Hepatocyte growth factor receptor (Homo sapiens, UniProt P08581); test: Inhibition of c-Met (unknown origin) by mobility shift assay
HepG2 = test: Cytotoxicity against human HepG2 cells after 72 hrs by MTT assay; conditions: HepG2, 72 h
HeLa = test: Cytotoxicity against human HeLa cells after 72 hrs by MTT assay

Hepatocyte growth factor receptor, sequence (P08581 whole entry): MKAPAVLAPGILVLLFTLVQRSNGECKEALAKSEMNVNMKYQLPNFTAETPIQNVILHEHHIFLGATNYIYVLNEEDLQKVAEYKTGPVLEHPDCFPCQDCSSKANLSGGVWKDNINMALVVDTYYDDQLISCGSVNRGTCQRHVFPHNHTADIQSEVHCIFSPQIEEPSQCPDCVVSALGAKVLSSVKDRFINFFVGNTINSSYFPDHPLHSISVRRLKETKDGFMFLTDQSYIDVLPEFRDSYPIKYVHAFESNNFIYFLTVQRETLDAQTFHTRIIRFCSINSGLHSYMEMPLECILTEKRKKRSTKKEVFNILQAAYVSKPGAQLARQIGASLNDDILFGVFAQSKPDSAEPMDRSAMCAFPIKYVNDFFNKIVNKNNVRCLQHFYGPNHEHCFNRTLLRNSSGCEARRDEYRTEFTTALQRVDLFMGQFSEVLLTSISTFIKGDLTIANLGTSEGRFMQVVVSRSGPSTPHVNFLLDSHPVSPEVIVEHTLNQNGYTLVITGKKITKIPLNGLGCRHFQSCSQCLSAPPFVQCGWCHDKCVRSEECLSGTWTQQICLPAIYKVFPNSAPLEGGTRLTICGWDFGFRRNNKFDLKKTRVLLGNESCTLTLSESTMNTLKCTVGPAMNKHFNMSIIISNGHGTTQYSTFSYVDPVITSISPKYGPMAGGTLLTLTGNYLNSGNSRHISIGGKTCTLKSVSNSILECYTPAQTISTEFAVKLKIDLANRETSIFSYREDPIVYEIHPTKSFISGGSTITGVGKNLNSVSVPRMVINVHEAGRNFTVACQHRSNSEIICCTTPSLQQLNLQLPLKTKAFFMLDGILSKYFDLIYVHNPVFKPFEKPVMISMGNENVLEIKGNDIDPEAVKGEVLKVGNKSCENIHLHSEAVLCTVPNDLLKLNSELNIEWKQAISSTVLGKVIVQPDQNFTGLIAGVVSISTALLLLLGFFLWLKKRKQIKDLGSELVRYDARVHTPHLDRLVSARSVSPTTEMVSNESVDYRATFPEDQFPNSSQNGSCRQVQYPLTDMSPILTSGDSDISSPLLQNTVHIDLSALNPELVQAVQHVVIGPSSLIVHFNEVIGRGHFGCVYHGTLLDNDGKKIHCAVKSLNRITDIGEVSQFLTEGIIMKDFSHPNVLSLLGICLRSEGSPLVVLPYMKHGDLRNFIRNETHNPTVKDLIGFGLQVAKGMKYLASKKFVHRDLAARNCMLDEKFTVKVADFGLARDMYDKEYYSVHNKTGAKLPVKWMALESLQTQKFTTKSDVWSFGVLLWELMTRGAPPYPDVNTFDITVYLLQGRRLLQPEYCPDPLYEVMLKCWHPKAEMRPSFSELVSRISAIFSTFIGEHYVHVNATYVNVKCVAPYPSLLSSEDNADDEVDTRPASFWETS

Compound	IC50 (cells) [µM]	IC50 (MCF7) [µM]	IC50 [1] [µM]	IC50 (A549) [µM]	IC50 (HepG2) [µM]	IC50 (HeLa) [µM]
O=C(Nc1ccc(Oc2ccnc3[nH]ccc23)cc1)c1cc(-c2ccc(Cl)cc2)ccn1	25.1	> 10	–	4.31	–	–
O=C(Nc1ccc(Oc2ccnc3[nH]ccc23)c(F)c1)c1ccc(-c2ccc(F)cc2)cn1	13.4	> 10	> 10	6.01	–	–
O=C(Nc1ccc(Oc2ccnc3[nH]ccc23)cc1)c1ccc(-c2ccc(F)cc2F)cn1	> 10	> 10	> 10	> 10	–	–
O=C(Nc1ccc(Oc2ccnc3[nH]ccc23)c(F)c1)c1cc(-c2ccc(F)cc2F)ccn1	> 10	> 10	> 10	> 10	–	–
O=C(Nc1ccc(Oc2ccnc3[nH]ccc23)c(F)c1)c1cc(-c2ccccc2)ccn1	> 10	> 10	> 10	4.95	–	–
COc1ccc(-c2ccc(C(=O)Nc3ccc(Oc4ccnc5[nH]ccc45)cc3)nc2)cc1	> 10	> 10	–	> 10	–	–
O=C(Nc1ccc(Oc2ccnc3[nH]ccc23)c(F)c1)c1cc(-c2ccc(C(F)(F)F)cc2)ccn1	4.35	8.55	> 10	4.92	–	–
O=C(Nc1ccc(Oc2ccnc3[nH]ccc23)cc1)c1cc(-c2ccc(C(F)(F)F)cc2)ccn1	14.2	> 10	> 10	3.95	–	–
COc1ccc(-c2ccnc(C(=O)Nc3ccc(Oc4ccnc5[nH]ccc45)cc3)c2)cc1	9.62	8.21	–	6.97	11.7	7.53
Cc1ccc(-c2ccnc(C(=O)Nc3ccc(Oc4ccnc5[nH]ccc45)cc3)c2)cc1	> 10	> 10	–	> 10	–	–
Cc1ccc(-c2ccc(C(=O)Nc3ccc(Oc4ccnc5[nH]ccc45)cc3)nc2)cc1	> 10	> 10	–	> 10	–	–
Cc1cccc(-c2ccnc(C(=O)Nc3ccc(Oc4ccnc5[nH]ccc45)cc3)c2)c1	5.47	7.47	–	7.01	–	–
CCc1ccc(-c2ccc(C(=O)Nc3ccc(Oc4ccnc5[nH]ccc45)cc3)nc2)cc1	> 10	> 10	> 10	> 10	–	–
O=C(Nc1ccc(Oc2ccnc3[nH]ccc23)cc1)c1ccc(-c2ccc(Cl)cc2)cn1	> 10	> 10	> 10	> 10	–	–
O=C(Nc1ccc(Oc2ccnc3[nH]ccc23)c(F)c1)c1ccc(-c2ccc(F)cc2F)cn1	4.72	> 10	–	3.1	–	–
Cc1ccc(-c2ccnc(C(=O)Nc3ccc(Oc4ccnc5[nH]ccc45)c(F)c3)c2)c(C)c1	4.01	6.22	–	4.35	13.3	11.9

Now from value to compound, other results behind:

IC50 (cells) [µM]	IC50 (MCF7) [µM]	IC50 [1] [µM]	Compound	IC50 (A549) [µM]	IC50 (HepG2) [µM]	IC50 (HeLa) [µM]
0.65	10.1	> 10	COc1ccc(-c2ccc(C(=O)Nc3ccc(Oc4ccnc5[nH]ccc45)c(F)c3)nc2)cc1	2.24	–	–
0.86	9.12	–	Cc1cccc(-c2ccnc(C(=O)Nc3ccc(Oc4ccnc5[nH]ccc45)c(F)c3)c2)c1	1.75	11.2	10.3
3.97	8.43	–	Cc1ccc(-c2ccnc(C(=O)Nc3ccc(Oc4ccnc5[nH]ccc45)c(F)c3)c2)cc1	3.12	–	–
3.03	> 10	–	O=C(Nc1ccc(Oc2ccnc3[nH]ccc23)c(F)c1)c1ccc(-c2ccc(Cl)cc2)cn1	10	–	–
2.96	7.47	–	CCc1ccc(-c2ccnc(C(=O)Nc3ccc(Oc4ccnc5[nH]ccc45)c(F)c3)c2)cc1	3.37	10.4	8.63
3.27	3.75	–	O=C(Nc1ccc(Oc2ccnc3[nH]ccc23)cc1)c1cc(-c2ccccc2)ccn1	2.92	–	–
2.64	8.02	–	Cc1ccc(-c2ccc(C(=O)Nc3ccc(Oc4ccnc5[nH]ccc45)c(F)c3)nc2)cc1	2.3	–	–
0.76	4.39	> 10	O=C(Nc1ccc(Oc2ccnc3[nH]ccc23)c(F)c1)c1ccc(-c2ccccc2)cn1	1.25	–	–
0.02	9.11	–	COc1ccc(-c2ccnc(C(=O)Nc3ccc(Oc4ccnc5[nH]ccc45)c(F)c3)c2)cc1	1.04	13.3	5.89
0.71	9.52	–	O=C(Nc1ccc(Oc2ccnc3[nH]ccc23)c(F)c1)c1cc(-c2ccc(F)cc2)ccn1	1.09	–	–

— ChEMBL document CHEMBL3751824, “Design, synthesis, and docking studies of phenylpicolinamide derivatives bearing 1H-pyrrolo[2,3-b]pyridine moiety as c-Met inhibitors” (Bioorg Med Chem, 2016)
